In paper PMC12514245, “Impaired migration and lung invasion of human melanoma by a novel small molecule targeting the transmembrane domain of death receptor p75^NTR” (EMBO Molecular Medicine, 2025):
Where “and” joins values, the source holds several entries; their conditions need not be identical. Equal entries are not always repeated.

Tested on: A875 shp75 cells
Assay: Wound healing cell motility assay, A875 shp75
Type: cell-based, human
Details: for Wound area, Mean: N=3
Procedure: For wound healing assay, cells were grown until confluency and subjected to a wound across the cell mono-layer. Cells were then incubated with serum-free media either with DMSO or a small molecule (with or without 5 µM Q_VD_poH) and imaged at specific time-points. Cell migration is reflected as fold change in wound area over time.

[1] = 5μM Q_VD_poH + 10μM Div17E5, 0 hours
[2] = 5μM Q_VD_poH + 10μM Div17E5, 3 hours
[3] = 5μM Q_VD_poH + 10μM Div17E5, 6 hours
[4] = 5μM Q_VD_poH + 10μM Div17E5, 9 hours
[5] = 5μM Q_VD_poH + 10μM Div17E5, 12 hours
[6] = 5μM Q_VD_poH + 10μM Div17E5, 15 hours
[7] = 5μM Q_VD_poH + 10μM Div17E5, 18 hours
[8] = 5μM Q_VD_poH + 10μM Div17E5, 21 hours
[9] = 5μM Q_VD_poH + 10μM Div17E5, 24 hours

Oc1ccc(-c2cncc(Nc3ccc(Br)c(Cl)c3)n2)cc1 [Div17E5]
wound closure: did not significantly affect wound closure
Wound area, n1-n3 [1]: 0.989 Fold and 0.886 Fold and 1.125 Fold
Wound area, Mean [1]: 1.000 Fold
Wound area, n1-n3 [2]: 0.947 Fold and 0.979 Fold and 1.007 Fold
Wound area, Mean [2]: 0.978 Fold
Wound area, n1-n3 [3]: 0.959 Fold and 0.975 Fold and 0.953 Fold
Wound area, Mean [3]: 0.962 Fold
Wound area, n1-n3 [4]: 0.955 Fold and 0.965 Fold and 0.942 Fold
Wound area, Mean [4]: 0.954 Fold
Wound area, n1-n3 [5]: 0.935 Fold and 0.950 Fold and 0.940 Fold
Wound area, Mean [5]: 0.941 Fold
Wound area, n1-n3 [6]: 0.901 Fold and 0.902 Fold and 0.903 Fold
Wound area, Mean [6]: 0.902 Fold
Wound area, n1-n3 [7]: 0.849 Fold and 0.823 Fold
Wound area, Mean [7]: 0.840 Fold
Wound area, n1-n3 [8]: 0.828 Fold and 0.801 Fold and 0.783 Fold
Wound area, Mean [8]: 0.804 Fold
Wound area, n1-n3 [9]: 0.790 Fold and 0.822 Fold and 0.793 Fold
Wound area, Mean [9]: 0.801 Fold
Wound area, n1-n3 (10μM Div17E5, 0 hours): 1.039 Fold and 1.010 Fold and 0.951 Fold
Wound area, Mean (10μM Div17E5, 0 hours): 1.000 Fold
Wound area, n1-n3 (10μM Div17E5, 3 hours): 0.987 Fold and 0.961 Fold and 0.970 Fold
Wound area, Mean (10μM Div17E5, 3 hours): 0.973 Fold
Wound area, n1-n3 (10μM Div17E5, 6 hours): 0.982 Fold and 0.933 Fold and 0.919 Fold
Wound area, Mean (10μM Div17E5, 6 hours): 0.945 Fold
Wound area, n1-n3 (10μM Div17E5, 9 hours): 0.959 Fold and 0.914 Fold and 0.881 Fold
Wound area, Mean (10μM Div17E5, 9 hours): 0.918 Fold
Wound area, n1-n3 (10μM Div17E5, 12 hours): 0.961 Fold and 0.889 Fold and 0.887 Fold
Wound area, Mean (10μM Div17E5, 12 hours): 0.912 Fold
Wound area, n1-n3 (10μM Div17E5, 15 hours): 0.930 Fold and 0.849 Fold and 0.852 Fold
Wound area, Mean (10μM Div17E5, 15 hours): 0.877 Fold
Wound area, n1-n3 (10μM Div17E5, 18 hours): 0.858 Fold and 0.787 Fold and 0.795 Fold
Wound area, Mean (10μM Div17E5, 18 hours): 0.813 Fold
Wound area, n1-n3 (10μM Div17E5, 21 hours): 0.855 Fold and 0.772 Fold and 0.767 Fold
Wound area, Mean (10μM Div17E5, 21 hours): 0.798 Fold
Wound area, n1-n3 (10μM Div17E5, 24 hours): 0.867 Fold and 0.765 Fold and 0.792 Fold
Wound area, Mean (10μM Div17E5, 24 hours): 0.808 Fold
Wound area (Fold) (A875 shp75, 1uM, 0 h, Mean): 1.000 Fold
Wound area (Fold) (A875 shp75, 1uM, 0 h, n1): 0.980 Fold
Wound area (Fold) (A875 shp75, 1uM, 0 h, n2): 1.053 Fold
Wound area (Fold) (A875 shp75, 1uM, 0 h, n3): 0.966 Fold
Wound area (Fold) (A875 shp75, 1uM, 3 h, Mean): 0.957 Fold
Wound area (Fold) (A875 shp75, 1uM, 3 h, n1): 0.947 Fold
Wound area (Fold) (A875 shp75, 1uM, 3 h, n2): 0.963 Fold
Wound area (Fold) (A875 shp75, 1uM, 3 h, n3): 0.960 Fold
Wound area (Fold) (A875 shp75, 1uM, 6 h, Mean): 0.921 Fold
Wound area (Fold) (A875 shp75, 1uM, 6 h, n1): 0.914 Fold
Wound area (Fold) (A875 shp75, 1uM, 6 h, n2): 0.924 Fold
Wound area (Fold) (A875 shp75, 1uM, 6 h, n3): 0.923 Fold
Wound area (Fold) (A875 shp75, 1uM, 9 h, Mean): 0.898 Fold
Wound area (Fold) (A875 shp75, 1uM, 9 h, n1): 0.889 Fold
Wound area (Fold) (A875 shp75, 1uM, 9 h, n2): 0.905 Fold
Wound area (Fold) (A875 shp75, 1uM, 9 h, n3): 0.901 Fold
Wound area (Fold) (A875 shp75, 1uM, 12 h, Mean): 0.873 Fold
Wound area (Fold) (A875 shp75, 1uM, 12 h, n1): 0.869 Fold
Wound area (Fold) (A875 shp75, 1uM, 12 h, n2): 0.870 Fold
Wound area (Fold) (A875 shp75, 1uM, 12 h, n3): 0.881 Fold
Wound area (Fold) (A875 shp75, 1uM, 15 h, Mean): 0.847 Fold
Wound area (Fold) (A875 shp75, 1uM, 15 h, n1): 0.839 Fold
Wound area (Fold) (A875 shp75, 1uM, 15 h, n2): 0.841 Fold
Wound area (Fold) (A875 shp75, 1uM, 15 h, n3): 0.861 Fold
Wound area (Fold) (A875 shp75, 1uM, 18 h, Mean): 0.821 Fold
Wound area (Fold) (A875 shp75, 1uM, 18 h, n1): 0.821 Fold
Wound area (Fold) (A875 shp75, 1uM, 18 h, n2): 0.823 Fold
Wound area (Fold) (A875 shp75, 1uM, 18 h, n3): 0.820 Fold
Wound area (Fold) (A875 shp75, 1uM, 21 h, Mean): 0.792 Fold
Wound area (Fold) (A875 shp75, 1uM, 21 h, n1): 0.780 Fold
Wound area (Fold) (A875 shp75, 1uM, 21 h, n2): 0.797 Fold
Wound area (Fold) (A875 shp75, 1uM, 21 h, n3): 0.800 Fold
Wound area (Fold) (A875 shp75, 1uM, 24 h, Mean): 0.773 Fold
Wound area (Fold) (A875 shp75, 1uM, 24 h, n1): 0.775 Fold
Wound area (Fold) (A875 shp75, 1uM, 24 h, n2): 0.773 Fold
Wound area (Fold) (A875 shp75, 1uM, 24 h, n3): 0.771 Fold
Wound area (Fold) (A875 shp75, 2uM, 0 h, Mean): 1.000 Fold
Wound area (Fold) (A875 shp75, 2uM, 0 h, n1): 1.055 Fold
